TGI and GI50 data for 11 compounds are collected here from PubChem BioAssay (NCI).

Several values for one entry are separate records, joined by “and”; a condition that tells them apart may be missing. Identical values can stand only once.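 48-hour exposure; five concentrations; linearly interpolated endpoints. GI50 marks 50% less growth. Definition used: TGI = concentration required for complete inhibition of growth.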

Test systems include 786-0 renal; U251 CNS; SK-MEL-2 melanoma; HCC-2998 colon; CAKI-1 renal; MOLT-4 leukemia; HT29 colon; PC-3 prostate; COLO 205 colon; HL-60(TB) leukemia.
Test in all cases: growth of human tumour cells (NCI), 48 h

Consider `O=[N+]([O-])c1ccc(O)c2ncccc12`, for which the TGI was > 100 µM and 11.6 µM in the assay with 786-0 renal; > 100 µM and 13.3 µM in the assay on U251 CNS; 19.3 µM in the assay with SK-MEL-2 melanoma; 18.5 µM with HCC-2998 colon; > 100 µM and 16.5 µM in the assay with CAKI-1 renal; > 100 µM and 10.4 µM in the assay on MOLT-4 leukemia. The TGI is > 100 µM and 18.9 µM with HT29 colon; more than 100 µM in the assay with PC-3 prostate; > 100 µM and 10.7 µM in the assay on COLO 205 colon. For the same compound, the GI50 in the assay with SK-MEL-2 melanoma was 4.06 µM; with HCC-2998 colon, 5.21 µM; in the assay with PC-3 prostate, 35.8 µM and 4.02 µM.

With `Cc1ccc(N(C(=O)CC(=O)N2N=C(c3ccccc3)C(N=Nc3ccc([N+](=O)[O-])cc3)C2=O)C(=O)c2ccc(Cl)cc2)cc1` (centres undefined), the TGI with 786-0 renal was 30.5 µM; in the assay on U251 CNS, 23.7 µM; in the assay on SK-MEL-2 melanoma it was more than 62.4 µM; in the assay on HL-60(TB) leukemia, more than 56.5 µM; in the assay with HCC-2998 colon, more than 100 µM; with CAKI-1 renal it was more than 76.8 µM. The TGI with MOLT-4 leukemia is more than 100 µM; in the assay with HT29 colon, more than 53 µM; in the assay with COLO 205 colon, 10.4 µM.

As to `O=[N+]([O-])c1ccc2c(c1)S(=O)c1ccccc1-2` (centres undefined), the TGI in the assay with 786-0 renal, in the assay on U251 CNS, in the assay on SK-MEL-2 melanoma, in the assay on HL-60(TB) leukemia, in the assay on CAKI-1 renal and with MOLT-4 leukemia was more than 100 µM throughout. Also, the TGI in the assay on HT29 colon, with PC-3 prostate and with COLO 205 colon was more than 100 µM throughout.

For the compound `C=C1C(=O)O[C@H]2[C@H]1CC/C(COC(=O)C(=O)c1cn(C)c3ccc(OC)cc13)=C\CC[C@@]1(C)O[C@@H]21`, the GI50 was 3.84 µM in the assay on 786-0 renal; 6.58 µM in the assay on U251 CNS; 3.03 µM in the assay with HL-60(TB) leukemia; 5.14 µM in the assay on HCC-2998 colon; 7.25 µM in the assay on CAKI-1 renal; 3.65 µM with MOLT-4 leukemia. The GI50 was 2.23 µM in the assay with HT29 colon and 5.89 µM in the assay on PC-3 prostate. Also, the TGI was determined as 7.56 µM in the assay with 786-0 renal; 10.1 µM with U251 CNS; 8.89 µM in the assay on HL-60(TB) leukemia; 9.72 µM in the assay on HCC-2998 colon; 21.8 µM in the assay with CAKI-1 renal; 16 µM in the assay with MOLT-4 leukemia. Besides, the TGI with HT29 colon is 5.4 µM; in the assay with PC-3 prostate, 10.8 µM.

`Cc1ccc(-n2c(-c3ccc(Cl)cc3)cs/c2=N\NC(=O)COc2n[nH]c(=O)c3ccccc23)cc1`: the GI50 with 786-0 renal is 51.4 µM; with U251 CNS, 37.5 µM; with SK-MEL-2 melanoma it was more than 100 µM; with HL-60(TB) leukemia it was more than 100 µM; with CAKI-1 renal it was 25.7 µM; in the assay with MOLT-4 leukemia it was more than 100 µM. In addition, the GI50 in the assay with HT29 colon, in the assay on PC-3 prostate and with COLO 205 colon was more than 100 µM throughout. In addition, the TGI in the assay on 786-0 renal was more than 100 µM; with U251 CNS, more than 100 µM; in the assay on SK-MEL-2 melanoma, more than 100 µM; in the assay with HL-60(TB) leukemia, more than 100 µM; in the assay with CAKI-1 renal, 72.7 µM; in the assay on MOLT-4 leukemia, more than 100 µM. The TGI in the assay on HT29 colon, in the assay on PC-3 prostate and with COLO 205 colon was more than 100 µM in each case.

For `C=C1CO[C@@H]2C[C@@H]1CCC1(C)OC1CC/C(C)=C/CC[C@@]2(C)O` (some centres undefined), the GI50 is more than 20.3 µM in the assay with 786-0 renal; 37.6 µM in the assay with U251 CNS; 43.2 µM with SK-MEL-2 melanoma; 43.1 µM in the assay on HCC-2998 colon; 20 µM in the assay with CAKI-1 renal; 17.1 µM with MOLT-4 leukemia. For the same compound, the GI50 is 24.5 µM with HT29 colon, 18.5 µM in the assay on PC-3 prostate and 34.4 µM with COLO 205 colon. Also, the TGI was more than 53.5 µM in the assay on 786-0 renal; more than 74.2 µM with U251 CNS; more than 84.6 µM with SK-MEL-2 melanoma; more than 84 µM with HCC-2998 colon; 44 µM in the assay with CAKI-1 renal; 39.1 µM in the assay with MOLT-4 leukemia. For the same compound, the TGI in the assay on HT29 colon was more than 71 µM; in the assay with PC-3 prostate, 36.9 µM; in the assay with COLO 205 colon it was more than 87.2 µM.

Turning to `COc1cccc(C2C(C#N)=C(N)Oc3cc(OC)ccc32)c1` (centres undefined), the GI50 in the assay on 786-0 renal is 0.0556 µM; in the assay on U251 CNS, 0.0419 µM; with HL-60(TB) leukemia, 0.0263 µM; in the assay on HCC-2998 colon, 0.0594 µM; with CAKI-1 renal it was 0.0493 µM; with MOLT-4 leukemia, 0.0598 µM. Further, the GI50 in the assay on HT29 colon is 0.0416 µM; in the assay on PC-3 prostate, 0.0373 µM; with COLO 205 colon, 0.0464 µM. Also, the TGI with 786-0 renal was more than 66.8 µM; in the assay with U251 CNS, more than 100 µM; with HL-60(TB) leukemia it was 0.077 µM; in the assay on CAKI-1 renal it was more than 100 µM; in the assay with MOLT-4 leukemia it was more than 37.4 µM; with HT29 colon, 4.96 µM. The TGI in the assay with PC-3 prostate was more than 94.6 µM; in the assay on COLO 205 colon, 0.529 µM.

For the compound `CC(C)(CCC(C)(C)c1ccccc1)c1ccccc1`, the TGI with 786-0 renal is 29.5 µM; with U251 CNS, 30.4 µM; in the assay on SK-MEL-2 melanoma, 31.5 µM; with HL-60(TB) leukemia, 32.5 µM; in the assay with CAKI-1 renal, 48.2 µM; with MOLT-4 leukemia it was 41.4 µM. In addition, the TGI in the assay on HT29 colon was 27.8 µM; with PC-3 prostate it was more than 100 µM; with COLO 205 colon, 33.5 µM.

In the case of `C1C[OH+]CC[OH+]CC[OH+]CC[OH+]CC[OH+]CC[OH+]1.[Cl-].[Ta+5]`, the GI50 in the assay on 786-0 renal, in the assay with U251 CNS, in the assay with SK-MEL-2 melanoma, with HL-60(TB) leukemia, in the assay with HCC-2998 colon and in the assay on CAKI-1 renal was more than 100 µM in each case. Moreover, the GI50 in the assay on MOLT-4 leukemia, in the assay on HT29 colon and in the assay on COLO 205 colon was more than 100 µM throughout. Moreover, the TGI in the assay with 786-0 renal, in the assay with U251 CNS, in the assay on SK-MEL-2 melanoma, with HL-60(TB) leukemia, in the assay on HCC-2998 colon and in the assay on CAKI-1 renal was more than 100 µM in each case. Besides, the TGI in the assay on MOLT-4 leukemia, in the assay on HT29 colon and with COLO 205 colon was more than 100 µM throughout.

Turning to `Cc1nn(C)c(=O)c2nn(-c3ccccc3)c(C)c12`, the TGI in the assay with 786-0 renal, in the assay with U251 CNS, in the assay on SK-MEL-2 melanoma, with HL-60(TB) leukemia, in the assay with HCC-2998 colon and with CAKI-1 renal was more than 100 µM throughout. For the same compound, the TGI in the assay with MOLT-4 leukemia, in the assay on HT29 colon and with COLO 205 colon was more than 100 µM in each case.

With `O=C(/C=C/c1ccc(Cl)cc1)c1ccncc1`, the TGI was more than 100 µM in the assay on 786-0 renal; more than 100 µM with U251 CNS; more than 100 µM in the assay on SK-MEL-2 melanoma; 67.3 µM in the assay with HL-60(TB) leukemia; more than 100 µM in the assay on HCC-2998 colon; more than 100 µM in the assay with CAKI-1 renal. Also, the TGI was 60.3 µM in the assay with MOLT-4 leukemia, 44.4 µM in the assay with HT29 colon and more than 100 µM in the assay on COLO 205 colon.
